Laboratory results reported in BigSolDB 2.1.

CCOC(=O)CCC(=O)O[C@H]1[C@H](O[C@@H]2[C@@H](C)[C@H](O[C@H]3C[C@@](C)(OC)[C@@H](O)[C@H](C)O3)[C@@H](C)C(=O)O[C@H](CC)[C@@](C)(O)[C@H](O)[C@@H](C)C(=O)[C@H](C)C[C@@]2(C)O)O[C@H](C)C[C@@H]1N(C)C
solubility (mole fraction)
Conditions | 288.15 K | 293.15 K | 298.15 K | 303.15 K | 308.15 K | 313.15 K | 318.15 K | 323.15 K
in THF | 0.036 | 0.0416 | 0.0491 | 0.058 | 0.0684 | 0.081 | 0.0977 | 0.114
in acetone | 0.0138 | 0.0175 | 0.0219 | 0.0268 | 0.0347 | 0.0425 | 0.0527 | 0.0614
in acetonitrile | 0.0019 | 0.00252 | 0.00332 | 0.00397 | 0.00504 | 0.00703 | 0.00906 | 0.0114
in ethanol | 0.00762 | 0.00966 | 0.0128 | 0.017 | 0.0242 | 0.0323 | 0.0414 | 0.0518
in isopropanol | 0.00814 | 0.0106 | 0.0141 | 0.0187 | 0.0249 | 0.0342 | 0.0459 | 0.0556
in n-hexane | 9.26e-05 | 0.000129 | 0.000158 | 0.000213 | 0.000286 | 0.000371 | 0.000562 | 0.000698
